Tests used:
Assay type in all cases: in vivo
Digitaria ciliaris = test: Test Example 4: herbicidal effect by soil treatment (symbol F)
Procedure, shortened: (§1)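 Seeds were sown in sterilized diluvial soil, covered with about 1.5 cm of soil, and the soil surface was sprayed with a water-diluted emulsion of the compound at a predetermined rate. Plants grew in a greenhouse at 25° C. to 30° C.; effects were scored visually 3 weeks after application.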

Abutilon theophrasti [1] = test: Test Example 5: herbicidal effect by foliage application, plastic box (symbol M); conditions: 320 g/ha, 3 weeks after application
Procedure, shortened: (§2)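 Sowing in sterilized diluvial soil, 14 days' greenhouse growth at 25° C. to 30° C., then uniform small-sprayer foliar application of aqueous emulsion dilution; plants scored three weeks afterwards.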

Scirpus juncoides = test: Test Example 2: herbicidal activity, application during weed generation in submerged conditions (symbol B); conditions: Table 23; application herbicide amount 320 g/ha; grade 0-5 by criteria of Test Example 1
Procedure, shortened: (§3)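 Scoring of herbicidal effect took place 3 weeks after treatment, using the criteria of the earlier test. Treatment was water-surface application of diluted emulsifiable compound at a set dose. Plants were at one- to two-leaf stage in submerged alluvial soil (4 cm depth), greenhouse 25-30° C.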

Abutilon theophrasti [2] = test: Test Example 4: herbicidal effect by soil treatment (symbol M)
Procedure, shortened: as §1

Amaranthus retroflexus = test: Test Example 5: herbicidal effect by foliage application, plastic box (symbol N); conditions: 320 g/ha, 3 weeks after application
Procedure, shortened: as §2

[3] = tested on: Echinochloa crus-galli var. crus-galli; test: Test Example 5: herbicidal effect by foliage application, plastic box (symbol H); conditions: 320 g/ha, 3 weeks after application
Procedure, shortened: as §2

Alopecurus myosuroides = test: Test Example 4: herbicidal effect by soil treatment (symbol J)
Procedure, shortened: as §1

rice = test: Test Example 4: effect on crop by soil treatment (symbol b)
Procedure, shortened: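 Crop seeds, among them rice, wheat, beet and rapeseed, were sown in sterilized diluvial soil and covered with about 1.5 cm of soil. Boxes were kept in a greenhouse at 25° C. to 30° C. for plant growth.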

[4] = tested on: Echinochloa oryzacola Vasing.; test: Test Example 2: herbicidal activity, application during weed generation in submerged conditions (symbol A); conditions: Table 23; application herbicide amount 320 g/ha; grade 0-5 by criteria of Test Example 1
Procedure, shortened: as §3

Monochoria vaginalis [5] = test: Test Example 1: herbicidal activity, application before weed generation in submerged conditions (symbol C); conditions: application herbicide amount 320 g/ha
Procedure, shortened: (§4)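 Weeds are sown into submerged alluvial soil alongside transplanted 2.5-leaf rice, and the compound, as an emulsion diluted to a set rate, is applied onto the water before emergence. Rating on the 0–5 herbicidal-ratio scale follows 3 weeks of greenhouse growth at 25–30 °C.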

beet = test: Test Example 5: effect on crop by foliage application, plastic box (symbol f); conditions: 320 g/ha, 3 weeks after application
Procedure, shortened: (§5)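 Greenhouse test at 25° C. to 30° C. Seeds of crops and weeds were spot-sown in boxes of sterilized diluvial soil under roughly 1.5 cm soil cover, then grown for foliage treatment.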

Monochoria vaginalis [6] = test: Test Example 2: herbicidal activity, application during weed generation in submerged conditions (symbol C); conditions: Table 23; application herbicide amount 320 g/ha; grade 0-5 by criteria of Test Example 1
Procedure, shortened: as §3

[7] = tested on: Echinochloa oryzacola Vasing.; test: Test Example 1: herbicidal activity, application before weed generation in submerged conditions (symbol A); conditions: application herbicide amount 320 g/ha
Procedure, shortened: as §4

rapeseed = test: Test Example 5: effect on crop by foliage application, plastic box (symbol g); conditions: 320 g/ha, 3 weeks after application
Procedure, shortened: as §5

Avena fatua = test: Test Example 4: herbicidal effect by soil treatment (symbol I)
Procedure, shortened: as §1

[8] = application herbicide amount 320 g/ha

SMILES	M: Abutilon theophrasti, herbicidal effect grade (Abutilon theophrasti [1])	Herbicidal effect grade, B: Scirpus juncoides (Scirpus juncoides)	N: Amaranthus retroflexus, herbicidal effect grade (Amaranthus retroflexus)	H: Echinochloa crus-galli var. crus-galli, herbicidal effect grade [3]	Herbicidal effect grade, A: Echinochloa oryzacola Vasing. [4]	Herbicidal effect grade, C: Monochoria vaginalis (Monochoria vaginalis [5])	f: beet, effect on crop grade (beet)	Herbicidal effect grade, C: Monochoria vaginalis (Monochoria vaginalis [6])	Herbicidal effect grade, A: Echinochloa oryzacola Vasing. [7]	g: rapeseed, effect on crop grade (rapeseed)	F (Digitaria ciliaris) herbicidal effect grade (Digitaria ciliaris; [8])	M (Abutilon theophrasti) herbicidal effect grade (Abutilon theophrasti [2]; [8])	J (Alopecurus myosuroides) herbicidal effect grade (Alopecurus myosuroides; [8])	b (directly sowed rice plant) effect on crop grade (rice; [8])	I (Avena fatua) herbicidal effect grade (Avena fatua; [8])	other results
CON=C(CC1CC(O)=C(c2c(C)cc(C#C[Si](C)(C)C)cc2C)C1=O)C(C)C (stereo not drawn) [9-005]	0 (Herbicidal ratio of 5% or lower (almost no effect))	0 (Herbicidal ratio of 5% or lower (almost no effect))	0 (Herbicidal ratio of 5% or lower (almost no effect))	5 (Herbicidal ratio of 90% or more (almost completely withered))	3 (Herbicidal ratio of 40% or higher and lower than 70%)	0 (Herbicidal ratio of 5% or lower (almost no effect))	0 (Herbicidal ratio of 5% or lower (almost no effect))	0 (Herbicidal ratio of 5% or lower (almost no effect))	4 (Herbicidal ratio of 70% or higher and lower than 90%)	3 (Herbicidal ratio of 40% or higher and lower than 70%)						Herbicidal effect grade, F: Digitaria ciliaris (Digitaria ciliaris; [8]): 1 (Herbicidal ratio of 5% or higher and lower than 20%); Herbicidal effect grade, M: Abutilon theophrasti (Abutilon theophrasti [2]; [8]): 0 (Herbicidal ratio of 5% or lower (almost no effect)); Herbicidal effect grade, J: Alopecurus myosuroides (Alopecurus myosuroides; [8]): 1 (Herbicidal ratio of 5% or higher and lower than 20%); Effect on crop grade, b: directly sowed rice plant (rice; [8]): 1 (Herbicidal ratio of 5% or higher and lower than 20%); Herbicidal effect grade, I: Avena fatua (Avena fatua; [8]): 0 (Herbicidal ratio of 5% or lower (almost no effect))
CON=C(CC1CC(OC(=O)COc2ccccc2)=C(c2c(C)cc(C)cc2C)C1=O)C1CC1 (stereo not drawn) [1-063]	2 (Herbicidal ratio of 20% or higher and lower than 40%)	2 (Herbicidal ratio of 20% or higher and lower than 40%)	0 (Herbicidal ratio of 5% or lower (almost no effect))	5 (Herbicidal ratio of 90% or more (almost completely withered))	4 (Herbicidal ratio of 70% or higher and lower than 90%)	0 (Herbicidal ratio of 5% or lower (almost no effect))	0 (Herbicidal ratio of 5% or lower (almost no effect))	0 (Herbicidal ratio of 5% or lower (almost no effect))	5 (Herbicidal ratio of 90% or more (almost completely withered))	4 (Herbicidal ratio of 70% or higher and lower than 90%)	5 (Herbicidal ratio of 90% or more (almost completely withered))	2 (Herbicidal ratio of 20% or higher and lower than 40%)	5 (Herbicidal ratio of 90% or more (almost completely withered))	5 (Herbicidal ratio of 90% or more (almost completely withered))	3 (Herbicidal ratio of 40% or higher and lower than 70%)	
CON=C(C)CC1CC(OC(=O)COc2ccc(C(C)=O)cc2)=C(c2c(C)cc(C)cc2C)C1=O (stereo not drawn) [1-080]		4 (Herbicidal ratio of 70% or higher and lower than 90%)			4 (Herbicidal ratio of 70% or higher and lower than 90%)	3 (Herbicidal ratio of 40% or higher and lower than 70%)		2 (Herbicidal ratio of 20% or higher and lower than 40%)	5 (Herbicidal ratio of 90% or more (almost completely withered))							F: Digitaria ciliaris, herbicidal effect grade (Digitaria ciliaris; 320 g/ha): 5 (Herbicidal ratio of 90% or more (almost completely withered)); M: Abutilon theophrasti, herbicidal effect (criteria 0-5) (Abutilon theophrasti [1]): 4 (Herbicidal ratio of 70% or higher and lower than 90%); M: Abutilon theophrasti, herbicidal effect grade (Abutilon theophrasti [2]; 320 g/ha): 4 (Herbicidal ratio of 70% or higher and lower than 90%); N: Amaranthus retroflexus, herbicidal effect (criteria 0-5) (Amaranthus retroflexus): 0 (Herbicidal ratio of 5% or lower (almost no effect)); H: Echinochloa crus-galli var. crus-galli, herbicidal effect (criteria 0-5) [3]: 5 (Herbicidal ratio of 90% or more (almost completely withered)); J: Alopecurus myosuroides, herbicidal effect grade (Alopecurus myosuroides; 320 g/ha): 5 (Herbicidal ratio of 90% or more (almost completely withered)); b: directly sowed rice plant, effect grade on crop (rice; 320 g/ha): 5 (Herbicidal ratio of 90% or more (almost completely withered)); f: beet, effect on crop (criteria 0-5) (beet): 0 (Herbicidal ratio of 5% or lower (almost no effect)); g: rapeseed, effect on crop (criteria 0-5) (rapeseed): 4 (Herbicidal ratio of 70% or higher and lower than 90%); I: Avena fatua, herbicidal effect grade (Avena fatua; 320 g/ha): 3 (Herbicidal ratio of 40% or higher and lower than 70%)
CON=C(CC1CC(O)=C(c2c(C)cc(C)cc2C)C1=O)c1ccccn1 (stereo not drawn) [1-045]	0 (Herbicidal ratio of 5% or lower (almost no effect))	0 (Herbicidal ratio of 5% or lower (almost no effect))	0 (Herbicidal ratio of 5% or lower (almost no effect))	5 (Herbicidal ratio of 90% or more (almost completely withered))	3 (Herbicidal ratio of 40% or higher and lower than 70%)	0 (Herbicidal ratio of 5% or lower (almost no effect))	0 (Herbicidal ratio of 5% or lower (almost no effect))	0 (Herbicidal ratio of 5% or lower (almost no effect))	5 (Herbicidal ratio of 90% or more (almost completely withered))	2 (Herbicidal ratio of 20% or higher and lower than 40%)	0 (Herbicidal ratio of 5% or lower (almost no effect))	0 (Herbicidal ratio of 5% or lower (almost no effect))	0 (Herbicidal ratio of 5% or lower (almost no effect))	0 (Herbicidal ratio of 5% or lower (almost no effect))	0 (Herbicidal ratio of 5% or lower (almost no effect))	
COCCON=C(C)CC1CC(O)=C(c2c(C)cc(C)cc2C)C1=O (stereo not drawn) [1-041]	4 (Herbicidal ratio of 70% or higher and lower than 90%)	0 (Herbicidal ratio of 5% or lower (almost no effect))	3 (Herbicidal ratio of 40% or higher and lower than 70%)	5 (Herbicidal ratio of 90% or more (almost completely withered))	5 (Herbicidal ratio of 90% or more (almost completely withered))	0 (Herbicidal ratio of 5% or lower (almost no effect))	1 (Herbicidal ratio of 5% or higher and lower than 20%)	0 (Herbicidal ratio of 5% or lower (almost no effect))	5 (Herbicidal ratio of 90% or more (almost completely withered))	4 (Herbicidal ratio of 70% or higher and lower than 90%)	5 (Herbicidal ratio of 90% or more (almost completely withered))	3 (Herbicidal ratio of 40% or higher and lower than 70%)	5 (Herbicidal ratio of 90% or more (almost completely withered))	5 (Herbicidal ratio of 90% or more (almost completely withered))	5 (Herbicidal ratio of 90% or more (almost completely withered))	
